How the values were obtained:
Assay in all cases: Fungicidal spot assay on compound-free YPD plates
Assay type in all cases: cell-based
[1] = system: C. albicans; conditions: 42°C exposure, then compound-free YPD plates
Protocol: (§1) We tested the effects of 4456dh on live cells by determining the minimal inhibitory concentration causing 80% growth reduction (MIC80). Wild-type (WT) C. albicans and C. auris cells were incubated with 4456dh in yeast-peptone-dextrose (YPD) medium at 42°C and 39°C, respectively (Fig. 4A). […] 4456dh inhibited the growth of C. auris with an MIC80 of 7 mM at 39°C (Fig. 4A). The MIC80 increased at 30°C to greater than 13 mM (Fig. S7A).
(§2) Fig 4 4456dh inhibits the growth of Candida and Cryptococcus species. Two-fold dose response assays were performed against (A) C. albicans at 42°C and C. auris at 39°C, (B) C. glabrata at 42°C, and (C) C. neoformans, C. deneoformans, and C. gattii at 37°C. 4456dh was administered at the concentrations indicated. […] Left: relative growth of treated samples was calculated by averaging technical triplicates and normalizing the OD600 of each treated well to the average OD600 of the untreated WT controls, after the absorbance due to the compound was subtracted. The MIC80 values, calculated based on the OD600 values, are indicated in the white text on each heat map. […]
(§3) 124 technical replicates. Growth, as determined by a reading of absorbance at 600 nm, was
(§4) 125 normalized to untreated controls and was corrected for the absorbance of 4456dh in the YPD […]
(§5) 129 overnight cultures was quantified by measuring the OD600 and corrected for the background
(§6) 130 absorbance of the medium. […]

[2] = system: C. auris; conditions: 30°C and 39°C exposure
Protocol: as §1, §2, §3, §4, §5, §6

[3] = system: C. deneoformans
Protocol: (§7) Fig 4 4456dh inhibits the growth of Candida and Cryptococcus species. Two-fold dose response assays were performed against (A) C. albicans at 42°C and C. auris at 39°C, (B) C. glabrata at 42°C, and (C) C. neoformans, C. deneoformans, and C. gattii at 37°C. 4456dh was administered at the concentrations indicated. Cultures were grown in YPD at the listed temperatures for 48 hours for Candida species and 72 hours for Cryptococcus species. Experimental temperatures reflect the temperatures at which the fungi experience heat stress. Left: relative growth of treated samples was calculated by averaging technical triplicates and normalizing the OD600 of each treated well to the average OD600 of the untreated WT controls, after the absorbance due to the compound was subtracted. The MIC80 values, calculated based on the OD600 values, are indicated in the white text on each heat map. Right: representative spot assays show the ability of cells to grow after exposure to 4456dh and indicate fungicidal activity of 4456dh. TEXT PRINTED IN THE PICTURE: (A) 4456dh: C. albicans 42 °C: 13 mM; C. auris 39 °C: 7 mM | (B) 4456dh: C. glabrata 42 °C: 7.8 μM | (C) 4456dh: C. neoformans 37 °C: 7 mM; C. deneoformans 37 °C: 3 mM; C. gattii 37 °C: 7 mM DOUBTS OF THE COPYIST ABOUT THIS PICTURE: 4456dh, all panels: the picture prints no measure name with the white values on the heat maps, so each value is given only with its organism and temperature
(§8) We next tested the activity of 4456dh on Cryptococcus species at 37°C.
(§9) 123 hours. […]
(§10) 126 medium. Growth was plotted as a heat map using Excel.
(§11) 127 Wild-t y pe C. neoformans strains H99, wild-type C. deneoformans JEC21 and wild- t y pe C. gattii
(§12) 128 R265 were cultured overnight in YPD (yeast-peptone- dextrose) medium at 30 °C. Growth of the
as §5
(§13) 130 absorbance of the medium. Antifungal potency for 4456dh was assessed by minimum inhibitory
(§14) 131 concentration (MIC) dose-response assays performed under standard Clinical and Lab Standards
(§15) 132 Institute (CLSI) conditions. A volume of 125 µL from each cell suspension was dispensed into the
(§16) 133 wells of 96-well flat-bottom microtiter plates (Corning). An additional 25 µL of 4456dh from a series
(§17) 134 of dilutions from the 157 mM stock solution prepared in water was added to each well. Following […]
(§18) 137 replicates. Growth, as determined by a reading of absorbance at 600 nm, was normalized to
(§19) 138 untreated controls and was corrected for the absorbance of 4456dh in the YPD medium. […]
(§20) 139 minimum inhibitory concentration causing 80% growth reduction, or MIC80, was determined based […]
(§21) 157 Optical density (OD600) was determined with an Infinite PRO plate reader ( Tecan). […]

[4] = system: C. gattii; conditions: 37°C exposure
Protocol: as §7, §8, §9, §10, §11, §12, §5, §13, §14, §15, §16, §17, §18, §19, §20, §21

[5] = system: C. neoformans; conditions: 37°C exposure
Protocol: as §7, §8, §9, §10, §11, §12, §5, §13, §14, §15, §16, §17, §18, §19, §20, §21

Question: Which results are given for `Cn1cc(-c2csc(NC(=O)Cc3ccccn3)n2)cn1` [Compound 4456dh]?
Answer: fungicidal activity [1]: temperature-dependent fungicidal activity; fungicidal activity [2]: fungicidal activity of 4456dh on C. auris was also detected; fungicidal activity ([3]; 30°C, 13 mM 4456dh): displayed fungicidal activity; fungicidal activity ([3]; 37°C exposure): Fungicidal activity of 4456dh was also detected; fungicidal activity [4]: Fungicidal activity of 4456dh was also detected; fungicidal activity [5]: Fungicidal activity of 4456dh was also detected

Reference: paper PMC12505902, “Inhibitors of trehalose-6-phosphate synthase activity in fungal pathogens compromise thermal tolerance pathways” (mBio, 2025)
